Measurements taken from patent US7884081B2, “Methods of modulating tubulin deacetylast activity” (The J. David Gladstone Institutes, priority 2002, dated 2011).
No end group written: not given here.

Assays:
SIRT2 [1] = target: T1, SIRT2 (Homo sapiens, UniProt Q8IXJ6); experiment: Histone deacetylase assay, immunoprecipitated SIRT2-FLAG on [3H]acetylated histone H4 peptide; format: biochemical
T1 sequence (Q8IXJ6 1-389): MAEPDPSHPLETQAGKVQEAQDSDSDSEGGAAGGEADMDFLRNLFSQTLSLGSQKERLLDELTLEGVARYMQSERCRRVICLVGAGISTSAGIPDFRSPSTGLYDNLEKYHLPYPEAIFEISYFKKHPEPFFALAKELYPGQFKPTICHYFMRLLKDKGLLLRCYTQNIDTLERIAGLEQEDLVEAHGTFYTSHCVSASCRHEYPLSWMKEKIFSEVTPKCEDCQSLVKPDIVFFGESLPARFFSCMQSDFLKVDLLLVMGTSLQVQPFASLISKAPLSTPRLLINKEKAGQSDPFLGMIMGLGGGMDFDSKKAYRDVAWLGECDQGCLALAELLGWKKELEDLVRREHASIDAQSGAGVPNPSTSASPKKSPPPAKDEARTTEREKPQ
Procedure: HEK 293T cells were transfected by calcium phosphate DNA precipitation method and lysed 48 hours post-transfection in low stringency lysis buffer (50 mM Tris-HCl, pH 7.5, 0.5 mM EDTA, 0.5% NP-40, 150 mM NaCl) in the presence of protease inhibitor cocktail (Complete, Roche Molecular Biochemicals, Indianapolis, Ind.). FLAG tagged proteins were immunoprecipitated with anti-FLAG M2 agarose affinity gel (Sigma, St. Louis, Mo.) and GFP-tagged proteins were immunoprecipitated with anti-GFP monoclonal antibody (Sigma, St. Louis, Mo.) in the presence of Protein G Sepharose (Amersham Pharmacia Biotech, Inc., Piscataway, N.J.) for 2 hours at 4° C. Immunoprecipitated material was washed 3 times in low stringency lysis buffer and one time in SIRT2 deacetylase buffer (50 mM Tris-HCl, pH 9.0, 4 mM MgCl2, and 0.2 mM dithiothreitol (DTT)).
Immunoprecipitated material and recombinant SIRT2 were resuspended in 100 μL of SIRT2 deacetylase buffer containing NAD (Sigma, St. Louis, Mo.) and [^3H] acetylated histone H4 peptide (a.a. 1-23) (Emiliani et al., 1998). TSA (WACO BioProducts, Richmond, Va.) was resuspended in dimethyl sulfoxide (DMSO) was further diluted in DMSO and added to reactions to desired concentration. […] After centrifugation for 5 minutes, 400 μL of the ethyl acetate fraction was mixed with 5 ml scintillation fluid and counted.

SIRT1 protein = details: cited from earlier work
SIRT2 [2] = target: T1, SIRT2; experiment: Ex vivo tubulin deacetylation assay, SIRT2-FLAG with cellular lysate, western blot for acetylated tubulin; format: biochemical; details: 1 mM NAD
Procedure: Immunoprecipitations were resuspended in 100 μl SIRT deacetylase buffer containing 50 μg total cellular lysate from untransfected HEK 293T cells and 1 mM NAD. Reactions containing 400 nM TSA or 5 mM nicotinamide (Sigma, St. Louis, Mo.) were pre-incubated at room temperature with all components of the reaction in the absence of NAD for 10 minutes, Following the pre-incubation, the enzymatic reactions were started with the addition of NAD followed by incubation for 2 hours at room temperature with constant agitation. Reactions were stopped by the addition of 50 μl 6× SDS-polyacrylamide gel electrophoresis (PAGE) buffer. Beads were pelleted by centrifugation at 14,000 rpm for 10 minutes and 10 μl of each supernatant was separated on 10% SDS-PAGE gels and western blotted as described above.
In this assay, HEK 293T cells were transfected with SIRT2-FLAG followed by immunoprecipitation of the FLAG-tagged protein (FIG. 3A). The immunoprecipitated material was separated into two fractions. The first fraction was used to measure HDAC activity using the acetylated histone H4 peptide. […] The extent of acetylation/deacetylation of α-tubulin was determined by western blotting analysis using a specific antisera for acetylated α-tubulin. […]

[3] = system: GFP-MIZ-1 sub-cellular distribution in HeLa cells; experiment: GFP-MIZ-1 sub-cellular localization by immunofluorescence in transfected HeLa cells; format: cell-based; details: for percentage of cells with GFP-MIZ-1 localized in the cytoplasm: TSA treatment
Procedure: HeLa cells grown on coverslips were transfected with LipofectAMINE reagent (Gibco Invitrogen Corp., Carlsbad, Calif.) for 8 hours according to manufacturer's protocol or by calcium phosphate DNA precipitation method. Transfected cells were incubated for 12 hours with 400 nM TSA (WACO BioProducts, Richmond, Va.) 24 hours after transfection. Cells were washed twice for 10 minutes in PBS and fixed for 10 minutes in 4% formaldehyde (EMS, Ft. Washington, Pa.) followed by permeabilization for 10 minutes in 0.5% Triton-X-100 in PBS. Following three washes for 10 minutes in PBS, cells were incubated for 10 minutes in 10% BSA, and incubated for 1 hour with anti-acetylated tubulin 6-11B-1, anti-tubulin B-5-1-2 diluted 1:1000, or anti-FLAG M2 diluted 1:500 in 0.1% TWEEN-20™ non-ionic detergent. Cells were washed three times in 0.1% TWEEN-20™ non-ionic detergent, followed by incubation with goat anti-mouse IgG (Fc specific) TRITC-conjugated antibody (Sigma, St. Louis) diluted 1:100 in 0.1% TWEEN-20™ non-ionic detergent. Following incubation cells were incubated for 5 minutes in 20 mg/ml 4′,6′-diamidino-2-phenylindole hydrochloride (DAPI) washed three times in phosphate-buffered saline (PBS), once in ddH2O, and mounted with Gel Mount (Biomeda Corp., Foster City, Calif.). Slides were visualized on a Nikon E600 microscope system equipped with a SPOT 2 Digital Camera. Confocal images were acquired by laser-scanning confocal microscopy with an Olympus BX60 microscope equipped with a Radiance 2000 confocal setup (BioRad, Hercules, Calif.).
Transfected cells were counted as either GFP-MIZ-1 localized completely nuclear or with partial cytoplasmic retention. Cell counts were derived from inspection of at least 150 transfected cells from six microscopic fields. […] Data set is representative of three independent experiments.

α-tubulin = details: treatment of cells with TSA; cited from earlier work
SIRT3 = SIRT3 (Homo sapiens, UniProt Q9NTG7); experiment: In vitro HDAC activity assay with recombinant protein (ribavirin); format: biochemical
Procedure: (§1) Inhibitory activity of ribavirin against SIRT2 and SIRT3 proteins was tested using recombinant SIRT2 proteins and an in vitro assay. Ribavirin was incubated with recombinant protein only in buffer for 10 minutes; then NAD and substrate were added to start the reaction. Reactions were incubated for 2 hours at room temperature. Reactions were stopped by adding 25 μL stop buffer (0.1M HC1, 0.16M acetic acid) and vortexing briefly. Ethyl acetate extraction isolated any liberated acetyl groups. Ethyl acetate (0.5 ml) was added, mixture was vortexed for 15 seconds and spun at 14,000 rpm for 5 minutes. The upper phase (0.4 ml) was added to 5 mL scintillation fluid (Econofluor-2; Packard) and counted.

SIRT2 [4] = target: T1, SIRT2; experiment: as above; format: biochemical; parameters: 6xHis; factor Xa protease cleavage site; made in house; host or cells: E. coli DH5αFIQ
Procedure: as §1

[5] = system: acetylated tubulin in HeLa, 293T and HepG2 cells; experiment: Microtubule destabilizing drug treatment, western blot for acetylated tubulin; format: cell-based; details: 10 μg/mL colchicine or 1 μg/mL nocodazole for 6 hours
Source text: Lysates were equilibrated by total protein concentration and were separated on 10% SDS-PAGE gels and western blotted as described above.
Cells were harvested and lysates separated by SDS-PAGE and western blotting using specific antisera for acetylated tubulin and tubulin.

SIRT2 [6] = target: T1, SIRT2; experiment: Tubulin peptide deacetylation kinetics (HPLC); format: biochemical; parameters: 6xHis; factor Xa protease cleavage site; made in house; host or cells: E. coli DH5αFIQ; details: SIRT2, 800 μM NAD, 37° C.
recombinant Hst2p = recombinant Hst2p (Saccharomyces cerevisiae, UniProt P53686); experiment: Tubulin peptide deacetylation kinetics (HPLC); format: biochemical, yeast; details: 500 μM NAD, 37° C.
Procedure: Increasing concentrations of tubulin peptide (20-900 μM), and 800 μM NAD were reacted in the presence of 0.8 to 1 μM recombinant SIRT2 in 50 mM Tris, pH 7.5, 1 mM DTT, and 10% methanol at 37° C. For Hst2p reactions, tubulin peptides and 500 μM NAD were reacted in the presence of 9 to 19 μM recombinant Hst2p under the same conditions. Reactions were quenched with trifluoroacetic acid (TFA) to a final concentration of 1%. Time points were chosen such that initial velocity conditions were observed. Samples were injected into the high performance liquid chromatography (HPLC) with a Beckman C18 analytical column. Upon injection, the system was run isocratically with solvent A (0.05% TFA in H2O), followed by a gradient of 0-10% solvent B (0.02% TFA in CH3CN) for 4 minutes, and followed by a gradient of 10-23% solvent B for 23 minutes. Deacetylated and acetylated peptides eluted at 16% and 18% CH3CN, respectively. Elution of substrates and products were monitored by measuring the absorbance at 214 nm, and corresponding peaks were integrated using the Beckman System Gold Nouveau software. The amount of product was quantified by calculating the percentage of the deacetylated tubulin peptide from the total tubulin peptide based upon their integration values. […]

Chain of recombinant Hst2p (P53686 whole entry): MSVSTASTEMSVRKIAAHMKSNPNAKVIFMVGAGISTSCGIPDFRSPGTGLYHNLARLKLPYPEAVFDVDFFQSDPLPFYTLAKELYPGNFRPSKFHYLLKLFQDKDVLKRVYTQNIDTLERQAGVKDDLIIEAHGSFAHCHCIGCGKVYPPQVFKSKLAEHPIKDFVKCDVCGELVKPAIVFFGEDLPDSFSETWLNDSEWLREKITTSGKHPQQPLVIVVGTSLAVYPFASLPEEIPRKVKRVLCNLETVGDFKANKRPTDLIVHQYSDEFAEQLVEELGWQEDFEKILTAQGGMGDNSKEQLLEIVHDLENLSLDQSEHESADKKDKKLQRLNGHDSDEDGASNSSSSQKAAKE
Chain of SIRT3 (Q9NTG7 whole entry): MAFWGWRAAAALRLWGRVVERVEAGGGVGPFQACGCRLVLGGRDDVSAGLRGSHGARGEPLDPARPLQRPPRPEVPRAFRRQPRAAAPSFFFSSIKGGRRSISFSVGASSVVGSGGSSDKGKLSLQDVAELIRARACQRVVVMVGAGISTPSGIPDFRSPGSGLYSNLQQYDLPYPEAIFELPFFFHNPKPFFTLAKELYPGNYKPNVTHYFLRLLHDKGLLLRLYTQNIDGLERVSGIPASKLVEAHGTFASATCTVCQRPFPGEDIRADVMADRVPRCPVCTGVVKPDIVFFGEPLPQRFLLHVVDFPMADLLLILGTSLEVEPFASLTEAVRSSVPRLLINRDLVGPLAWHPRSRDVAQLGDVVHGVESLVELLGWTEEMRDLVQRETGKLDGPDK

Compound: NC(=O)c1cccnc1 [nicotinamide]
- HDAC activity of SIRT2 (SIRT2 [1]; increasing concentrations of nicotinamide, 156 μM to 20 mM): dose dependent decrease
- inhibition of SIRT1 (SIRT1 protein): effective inhibitor
- tubulin deacetylation by SIRT2 (SIRT2 [2]; 5 mM nicotinamide): completely inhibited

Compound: CC(/C=C/C(=O)NO)=C\[C@@H](C)C(=O)c1ccc(N(C)C)cc1 [TSA, Trichostatin A]
- HDAC activity of SIRT2 (SIRT2 [1]; immunoprecipitated SIRT2-FLAG, 1 mM NAD, increasing concentrations of TSA (100-1600 nM)): No change
- localization of GFP-MIZ-1 ([3]; HeLa cells treated with TSA (400 nM, 12 hours)): distinct shift in localization of GFP-MIZ-1 from the nucleus to the cytoplasm
- percentage of cells with GFP-MIZ-1 localized in the cytoplasm ([3]; co-transfected with FLAG empty vector): 36.9%
- percentage of cells with GFP-MIZ-1 localized in the cytoplasm ([3]; co-transfected with SIRT2-FLAG wild-type): 11.2%
- percentage of cells with GFP-MIZ-1 localized in the cytoplasm ([3]; co-transfected with catalytically inactive SIRT2-FLAG N168A): 35.3%
- acetylation of α-tubulin in cells (α-tubulin): induces hyperacetylation
- tubulin deacetylation by SIRT2 (SIRT2 [2]; 400 nM TSA): had no effect

Compound: NC(=O)c1ncn([C@@H]2O[C@H](CO)[C@@H](O)[C@H]2O)n1 [Ribavirin, 1-β-D-ribofuranosyl-1H-1,2,4-triazole-3-carboxamide]
- effect on SIRT3 in vitro HDAC activity (SIRT3): no effect
- inhibition at 25 µM (SIRT2 [4]): ~50%

Compound: COC(=O)Nc1nc2ccc(C(=O)c3cccs3)cc2[nH]1 [nocodazole]
- acetylation state of tubulin [5]: tubulin deacetylation

Compound: acetylated tubulin peptide: 9-amino acid synthetic α-tubulin peptide (MPSD(AcK)TIGG), acetylated on lysine-40 (MPSDK(Ac)TIGG)
- V/K (SIRT2 [6]): 894 ± 100 M⁻¹ s⁻¹
- kcat (SIRT2 [6]): 0.144 ± 0.005 s⁻¹
- V/K (recombinant Hst2p): 14.9 M⁻¹ s⁻¹
- kcat (recombinant Hst2p): 0.00254 ± 0.0003 s⁻¹
